Results reported in patent publication US20240108738A1, “BICYCLIC PEPTIDE LIGANDS SPECIFIC FOR NK CELLS” (Bicycle Tx Limited, priority 2021, published 2024).
Numbered stars: 1 amine (or outer) side, 2 acyl side, 3 side chain; on linkers, the order of the positions; unused ones are H or OH. Bridge positions count the residues as written; N and C are the ends. Square brackets hold non-standard residues; d marks the D form. Peptide text beside a SMILES is read from it. TATA = O=C(CC[*:1])N1CN(C(=O)CC[*:2])CN(C(=O)CC[*:3])C1; Cba = N[C@@H](CC1CCC1)C(=O)O

Target: T1, Fc-tagged human NKp46 (Homo sapiens, UniProt O76036)
T1 construct: purchased ACROBiosystems NC1-H5257
T1 sequence (O76036 22-304): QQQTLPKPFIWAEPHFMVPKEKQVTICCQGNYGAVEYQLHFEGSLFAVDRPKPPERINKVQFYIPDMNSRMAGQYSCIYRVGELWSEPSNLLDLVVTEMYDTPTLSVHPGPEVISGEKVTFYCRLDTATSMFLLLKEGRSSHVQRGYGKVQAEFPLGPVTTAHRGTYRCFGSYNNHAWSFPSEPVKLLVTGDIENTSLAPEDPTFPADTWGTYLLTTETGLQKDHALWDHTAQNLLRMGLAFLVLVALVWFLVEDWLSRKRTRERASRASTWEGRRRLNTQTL
Assay: NKp46 SPR assay (Method 1 and/or Method 2)
Assay type: binding
Conditions: SPR Method 1 and/or Method 2, Table 3B
Description: SPR experiments were performed to determine ka (M^−1s^−1), kd (s^−1), KD (nM) values (where measurable) of various bicyclic peptides to immobilised NKp46.
For analysis of peptide binding to NKp46, a Biacore 3000 instrument was used with a Cytiva Streptavidin chip. Capture of the protein (recombinant human NKp46-Fc fusion biotinylated via Avi-tag) was carried out at 25° C. with HBS-N (10 mM HEPES, 0.15 M NaCl, pH 7.4) as the running buffer and biotinylated NKp46 was captured to a level of 400-800 RU using a dilution of protein to 0.2 μM in buffer. Buffer was then changed to PBS/0.05% Tween 20 and a dilution series of the peptides was prepared in this buffer with a final DMSO concentration of 0.5% with a top peptide concentration of 100 nM-5000 nM and 6 further 2 or 3-fold dilutions. The SPR analysis was run at 25° C. and a flow rate of 50 μl/min with 60 seconds association and 200-400 seconds dissociation time. Data were corrected for DMSO excluded volume effects. All data were double-referenced for blank injections and reference surface using standard processing procedures and data processing and kinetic fitting were performed using Scrubber software, version 2.0c (BioLogic Software). Data were fitted using simple 1:1 binding model allowing for mass transport effects where appropriate.
Peptides were tested against Fc-tagged human NKp46 (ACROBiosystems, cat no. NC1-H5257).
For analysis of peptide binding, a Biacore 8k+ instrument was used with a CM5 chip (Cytiva). All experiments were carried out at 25° C. Anti-human IgG (Fc) antibody (Cytiva) was immobilized on all flow cells by standard amine coupling chemistry. The running buffer was HBS-N(Cytiva, 10 mM HEPES, 0.15 M NaCl, pH 7.4) and the flow rate was 10 μL/min. The carboxymethyl dextran surface was activated with a 1:1 ratio of 0.4 M 1-ethyl-3-(3-dimethylaminopropyl) carbodiimide hydrochloride (EDC)/0.1 M N-hydroxy succinimide (NHS) (Cytiva) for 420s. […] Residual activated groups were blocked with a 420 s injection of 1 M ethanolamine (pH 8.5). The final surface density was 3000-5000 RU. Fc-tagged human NKp46 was diluted to 0.1 μM in HBS-N and was captured on flow cell 2 only of the sensor chip at a flow rate of 10 μL/min to 500-1000 RU. The buffer was then changed to PBS-P+(Cytiva) supplemented with 2% DMSO. […] The flow rate was 50 μL/min with 60 s association and 400 s dissociation. Data were corrected for DMSO volume exclusion effects. All data were double-referenced against blank injections and reference surface response using standard processing procedures. Data processing and kinetic fitting was performed using Biacore Insight Evaluation Software with Extended Screening and Characterization Extension (Cytiva). Data were fitted using steady state affinity 1:1 binding model to determine KD. Data were fitted using kinetic 1:1 binding model to determine kinetic constants where appropriate.

Kd [nM]	SMILES
2760	CC(C)C[C@@H]1NC(=O)[C@@H]2CSCCC(=O)N3CN(CN(C3)C(=O)CCSC[C@@H](C(=O)N[C@@H](C)C(N)=O)NC(=O)[C@H](C(C)C)NC(=O)[C@H](CCCCN)NC(=O)CNC(=O)[C@H]([C@@H](C)O)NC(=O)[C@H](Cc3c[nH]cn3)NC1=O)C(=O)CCSC[C@H](NC(=O)[C@H](C)N)C(=O)N[C@@H](CC(N)=O)C(=O)N[C@@H](CC(C)C)C(=O)N[C@@H](CCC(N)=O)C(=O)N[C@@H](CCC(N)=O)C(=O)N[C@@H](C)C(=O)N2 [BCY14454, A-(SEQ ID NO: 63)-A] (H-ACNLQQACLHTGKVCA-NH2; linker 2-8-15 via TATA; N-terminus assumed)
2270	CSCC[C@@H]1NC(=O)[C@H](CCCCN)NC(=O)[C@@H]2CCCN2C(=O)[C@H](Cc2c[nH]cn2)NC(=O)[C@H]([C@@H](C)O)NC(=O)[C@H](CC(N)=O)NC(=O)[C@@H]2CCCN2C(=O)[C@@H]2CSCCC(=O)N3CN(CN(C3)C(=O)CCSC[C@@H](C(=O)N[C@@H](C)C(N)=O)NC1=O)C(=O)CCSC[C@H](NC(=O)[C@H](C)N)C(=O)N[C@@H](CC(C)C)C(=O)N[C@@H](CC(C)C)C(=O)N[C@@H](Cc1c[nH]cn1)C(=O)N[C@@H](CC(=O)O)C(=O)N[C@@H](Cc1c[nH]cn1)C(=O)N2 [BCY14457, A-(SEQ ID NO: 103)-A] (H-ACLLHDHCPNTHPKMCA-NH2; linker 2-8-16 via TATA)
1260	CC[C@H](C)[C@@H]1NC(=O)[C@@H]2CSCCC(=O)N3CN(CN(C3)C(=O)CCSC[C@@H](C(=O)N[C@@H](C)C(N)=O)NC(=O)[C@H](C(C)C)NC(=O)CNC(=O)[C@H](Cc3c[nH]c4ccccc34)NC1=O)C(=O)CCSC[C@H](NC(=O)[C@H](C)N)C(=O)N[C@@H](CC(=O)O)C(=O)N[C@@H](CC(C)C)C(=O)N[C@@H]([C@@H](C)O)C(=O)N[C@@H]([C@@H](C)O)C(=O)N[C@@H](Cc1c[nH]cn1)C(=O)N[C@@H](CC(N)=O)C(=O)N2 [BCY14458, A-(SEQ ID NO: 104)-A] (H-ACDLTTHNCIWGVCA-NH2; linker 2-9-14 via TATA; C-terminus assumed)
1070	CSCC[C@@H]1NC(=O)[C@@H]2CSCCC(=O)N3CN(CN(C3)C(=O)CCSC[C@@H](C(=O)N[C@@H](C)C(N)=O)NC(=O)[C@H](C(C)C)NC(=O)[C@H](CCCCN)NC(=O)CNC(=O)[C@H]([C@@H](C)O)NC(=O)[C@H](CCC(N)=O)NC1=O)C(=O)CCSC[C@H](NC(=O)[C@H](C)N)C(=O)N[C@@H](CC(N)=O)C(=O)N[C@@H](CC(C)C)C(=O)N[C@@H](CCC(N)=O)C(=O)N[C@@H](C)C(=O)N1CCC[C@H]1C(=O)N2 [BCY15098, A-(SEQ ID NO: 3)-A]
1090 ± 99	CSCC[C@@H]1NC(=O)[C@@H]2CSCCC(=O)N3CN(CN(C3)C(=O)CCSC[C@@H](C(=O)N[C@@H](C)C(N)=O)NC(=O)[C@@H]3CCCN3C(=O)[C@H](Cc3ccccc3)NC(=O)[C@H](CCCCN)NC1=O)C(=O)CCSC[C@H](NC(=O)[C@H](C)N)C(=O)N[C@@H](CC(N)=O)C(=O)N[C@@H](CC(C)C)C(=O)N[C@@H](CCC(N)=O)C(=O)N[C@@H](CC(N)=O)C(=O)N1CCC[C@H]1C(=O)N2 [BCY15102, A-(SEQ ID NO: 2)-A] (H-ACNLQNPCMKFPCA-NH2; linker 2-8-13 via TATA; C-terminus assumed)
1660 ± 544	CC(C)C[C@@H]1NC(=O)[C@@H](NC(=O)[C@H](C)N)CSCCC(=O)N2CN3CN(C2)C(=O)CCSC[C@H](NC(=O)[C@H](Cc2c[nH]cn2)NC(=O)[C@H](CC(=O)O)NC(=O)[C@H](Cc2c[nH]cn2)NC(=O)[C@H](CC(C)C)NC1=O)C(=O)N1CCC[C@H]1C(=O)N[C@@H](CC(N)=O)C(=O)N[C@@H]([C@@H](C)O)C(=O)N[C@@H](Cc1c[nH]cn1)C(=O)N1CCC[C@H]1C(=O)N[C@@H](CCCCN)C(=O)N[C@@H](CC(C)C)C(=O)N[C@H](C(=O)N[C@@H](C)C(N)=O)CSCCC3=O [BCY15103, A-(SEQ ID NO: 5)-A] (H-ACLLHDHCPNTHPKLCA-NH2; linker 2-8-16 via TATA)
2880	CSCC[C@@H]1NC(=O)[C@H](CCCCN)NC(=O)[C@@H]2CCCN2C(=O)[C@H](Cc2c[nH]cn2)NC(=O)[C@H]([C@@H](C)O)NC(=O)[C@H](CC(N)=O)NC(=O)[C@@H]2CCCN2C(=O)[C@@H]2CSCCC(=O)N3CN(CN(C3)C(=O)CCSC[C@@H](C(=O)N[C@@H](C)C(N)=O)NC1=O)C(=O)CCSC[C@H](NC(=O)[C@H](C)N)C(=O)N[C@@H](CC(C)C)C(=O)N[C@@H](CC(C)C)C(=O)N[C@@H](Cc1c[nH]cn1)C(=O)N[C@@H](CCC(=O)O)C(=O)N[C@@H](Cc1c[nH]cn1)C(=O)N2 [BCY15104, A-(SEQ ID NO: 6)-A] (H-ACLLHEHCPNTHPKMCA-NH2; linker 2-8-16 via TATA)
2670	CC[C@H](C)[C@@H]1NC(=O)[C@H]([C@@H](C)CC)NC(=O)[C@@H]2CCCN2C(=O)[C@H](Cc2c[nH]cn2)NC(=O)[C@H]([C@@H](C)O)NC(=O)[C@H](CC(N)=O)NC(=O)[C@@H]2CCCN2C(=O)[C@@H]2CSCCC(=O)N3CN(CN(C3)C(=O)CCSC[C@@H](C(=O)N[C@@H](C)C(N)=O)NC1=O)C(=O)CCSC[C@H](NC(=O)[C@H](C)N)C(=O)N[C@@H](CC(C)C)C(=O)N[C@@H](CC(C)C)C(=O)N[C@@H](Cc1c[nH]cn1)C(=O)N[C@@H](CC(=O)O)C(=O)N[C@@H](Cc1c[nH]cn1)C(=O)N2 [BCY15106, A-(SEQ ID NO: 8)-A] (H-ACLLHDHCPNTHPIICA-NH2; linker 2-8-16 via TATA)
44	CC(C)C[C@@H]1NC(=O)[C@H](Cc2ccc(O)cc2)NC(=O)[C@H](CC(=O)O)NC(=O)[C@@H]2CCCN2C(=O)[C@H](CC(C)C)NC(=O)[C@H](Cc2ccc(O)cc2)NC(=O)[C@@H](NC(=O)[C@H](C)N)CSCCC(=O)N2CN3CN(C2)C(=O)CCSC[C@@H](C(=O)N[C@@H](C)C(N)=O)NC(=O)[C@H](Cc2ccc(O)c(C(C)(C)C)c2)NC(=O)[C@H](CCC(=O)O)NC(=O)[C@H](CC(=O)O)NC(=O)CNC(=O)[C@H](CSCCC3=O)NC1=O [BCY15652, A-(SEQ ID NO: 109)-A]
3.9	CC(C)C[C@@H]1NC(=O)[C@H](Cc2ccc(O)cc2)NC(=O)[C@H](CC(=O)O)NC(=O)[C@@H]2CCCN2C(=O)[C@H](CC2CCC2)NC(=O)[C@H](Cc2ccc(O)cc2)NC(=O)[C@@H](NC(=O)[C@H](C)N)CSCCC(=O)N2CN3CN(C2)C(=O)CCSC[C@H](NC1=O)C(=O)N[C@H](C)C(=O)N[C@@H](CC(=O)O)C(=O)N[C@@H](CCC(=O)O)C(=O)N[C@@H](Cc1ccc(O)cc1)C(=O)N[C@H](C(=O)N[C@@H](C)C(N)=O)CSCCC3=O [BCY16132, A-(SEQ ID NO: 40)-A] (H-ACY[Cba]PDYLC[dA]DEYCA-NH2; linker 2-9-14 via TATA; N-terminus assumed)
3180	CC[C@H](C)[C@@H]1NC(=O)CNC(=O)[C@H](Cc2c[nH]c3ccccc23)NC(=O)[C@H](CCC(N)=O)NC(=O)[C@@H]2CSCCC(=O)N3CN(CN(C3)C(=O)CCSC[C@H](N)C(=O)N[C@@H](CC(=O)O)C(=O)N[C@@H](CC(C)C)C(=O)N[C@@H]([C@@H](C)O)C(=O)N[C@@H]([C@@H](C)O)C(=O)N[C@@H](Cc3c[nH]cn3)C(=O)N[C@@H](CC(N)=O)C(=O)N2)C(=O)CCSC[C@@H](C(N)=O)NC1=O [BCY18262, (SEQ ID NO: 11)]
